From PMC10762035, “Molecular basis of human trace amine-associated receptor 1 activation” (Nature Communications, 2024)
Positions count from the first letter of the chain named. “And” between values parts separate entries of the source, which are not always exact repeats. Equal entries are not always repeated.

Tests used:
Assay type in all cases: cell-based
[1] = molecular target: T1, β2AR-Nterm-hTA1-F112^3.41W (CryoEM Construct) (Homo sapiens, UniProt Q96RJ0, F112W); assay: GloSensor cAMP accumulation assay, cryoEM construct;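 also: cells transiently co-transfected with the receptor construct and GloSensor cAMP biosensor, luminescence read after 30 min compound exposure at room temperature in the dark as cAMP accumulation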;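 as to Normalized Luminescence Counts (N=2): normalized to the maximum response of β-PEA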
T1 construct: FLAG (N); 10xHis (N); TEV protease site (N); expressed in transfected cells; host or cells: HEK293T
T1 sequence (Q96RJ0 with tags, fused parts or gaps F112W): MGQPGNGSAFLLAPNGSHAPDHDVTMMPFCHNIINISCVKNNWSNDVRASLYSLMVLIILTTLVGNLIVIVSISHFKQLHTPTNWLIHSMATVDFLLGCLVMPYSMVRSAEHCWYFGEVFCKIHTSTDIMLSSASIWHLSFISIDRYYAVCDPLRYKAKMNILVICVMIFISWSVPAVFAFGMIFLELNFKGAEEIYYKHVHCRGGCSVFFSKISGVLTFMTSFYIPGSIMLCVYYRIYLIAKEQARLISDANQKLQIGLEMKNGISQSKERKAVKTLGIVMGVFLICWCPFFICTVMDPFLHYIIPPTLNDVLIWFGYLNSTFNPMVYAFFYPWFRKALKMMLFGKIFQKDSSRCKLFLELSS

[2] = molecular target: T2, hTA1 C5S (Homo sapiens, UniProt Q96RJ0, C5S); assay: GloSensor cAMP accumulation assay, C5S mutant; settings: for C5S - Normalized Luminescence Counts (N=2): log[Compound], single wells
T2 construct: expressed in transfected cells; host or cells: HEK293T
T2 sequence (Q96RJ0 1-339 C5S): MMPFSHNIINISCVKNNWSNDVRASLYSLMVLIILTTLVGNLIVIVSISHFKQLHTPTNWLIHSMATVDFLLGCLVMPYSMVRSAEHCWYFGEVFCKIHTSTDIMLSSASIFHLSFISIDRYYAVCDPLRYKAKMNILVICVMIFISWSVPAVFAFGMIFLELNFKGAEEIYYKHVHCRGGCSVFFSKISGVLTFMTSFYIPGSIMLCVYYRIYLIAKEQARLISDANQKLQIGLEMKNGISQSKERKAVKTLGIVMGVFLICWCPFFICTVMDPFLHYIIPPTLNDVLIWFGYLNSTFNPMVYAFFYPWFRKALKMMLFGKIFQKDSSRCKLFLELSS

[3] = molecular target: T3, hTA1 C13S (Homo sapiens, UniProt Q96RJ0, C13S); assay: GloSensor cAMP accumulation assay, C13S mutant; settings: for C13S - Normalized Luminescence Counts (N=2): log[Compound], single wells
T3 construct: expressed in transfected cells; host or cells: HEK293T
T3 sequence (Q96RJ0 1-339 C13S): T2 sequence (Q96RJ0 1-339 C5S) with S5C, C13S

[4] = molecular target: T4, hTA1 I290Y (Homo sapiens, UniProt Q96RJ0, I290Y); assay: GloSensor cAMP accumulation assay, I290Y mutant; settings: I120Y, log[Agonist], single replicates
T4 construct: expressed in transfected cells; host or cells: HEK293T
T4 sequence (Q96RJ0 1-339 I290Y): T2 sequence (Q96RJ0 1-339 C5S) with S5C, I290Y

[5] = Cryo EM Construct, mean of each independent experiment (3 replicates)

## NCCc1ccccc1 [β-PEA, β-phenethylamine]
[1]; Cryo EM Construct minus WT average
  ΔEmax values (each mutant value - WT average), Mean: 0
[1]; [5]
  Emax values, Mean: 0.8322
  pEC50 values, Mean: 7.553 and 7.926
[1]; CryoEM Construct, log[Compound], M = -5, single replicates
  Normalized Luminescence Counts (N=2): 99.4824 and 93.6783 and 105.677 and 107.109
[1]; CryoEM Construct, n=2
  Span ± SEM (Emax normalized to β-PEA): 100 ± 1.84
  pEC50 ± SEM: 7.75 ± 0.04
[1]; CryoEM Construct, n=2, read-out: EC50
  EC50: 17.4 nM
[2]; C5S, n=2
  Span ± SEM (Emax normalized to β-PEA): 100 ± 2.22
  pEC50 ± SEM: 7.04 ± 0.05
[2]; C5S, n=2, read-out: EC50
  EC50: 90.7 nM
[2]; hTA1 C5S minus WT average
  ΔEmax values (each mutant value - WT average), Mean: 0
  ΔpEC50 values (each mutant value - WT average), Mean: 0.0587 and -0.1606
[2]; hTA1 C5S, mean of 3 replicates, one line per independent experiment
  pEC50 values, Mean: 7.152 and 6.9329
[2]; hTA1 C5S, β-PEA = 100, mean of 3 replicates, one line per independent experiment
  Emax values, Mean: 100
[2]; M = -5
  C5S - Normalized Luminescence Counts (N=2): 105.865 and 101.779 and 112.458 and 98.7643 and 96.9001 and 118.028
[2]; M = -5.522
  C5S - Normalized Luminescence Counts (N=2): 88.1188 and 112.932 and 94.5762 and 114.438 and 73.9771 and 93.1716
[2]; M = -6
  C5S - Normalized Luminescence Counts (N=2): 83.9419 and 90.8734 and 98.6952 and 79.8459 and 79.6388
[2]; M = -6.522
  C5S - Normalized Luminescence Counts (N=2): 76.5362 and 74.7073 and 70.3723 and 75.427 and 66.8654 and 70.3867
[2]; M = -7
  C5S - Normalized Luminescence Counts (N=2): 61.9506 and 59.2638 and 58.7445 and 43.9424 and 45.3233 and 47.3256
[2]; M = -8.522
  C5S - Normalized Luminescence Counts (N=2): 3.721 and 3.676 and 4.421 and 4.379 and 2.308 and 3.965
[3]; C13S
  ΔEmax values (each mutant value - WT average): 0
  ΔpEC50 values (each mutant value - WT average): -0.3351 and -0.4017
[3]; C13S, Mean of fit per experiment
  Emax values: 100
[3]; C13S, n=2
  Span ± SEM (Emax normalized to β-PEA): 100 ± 2.41
  pEC50 ± SEM: 6.73 ± 0.05
[3]; C13S, n=2, read-out: EC50
  EC50: 188 nM
[3]; hTA1 C13S, mean of 3 replicates, one line per independent experiment
  pEC50 values, Mean: 6.758 and 6.6918
[3]; M = -5
  C13S - Normalized Luminescence Counts (N=2): 99.2705 and 93.6371 and 125.268 and 108.514 and 91.163 and 111.602
[3]; M = -5.522
  C13S - Normalized Luminescence Counts (N=2): 84.5018 and 89.7165 and 90.3636 and 93.2337 and 75.9363 and 100.338
[3]; M = -6
  C13S - Normalized Luminescence Counts (N=2): 78.7162 and 86.7856 and 86.6715 and 80.2383 and 65.7078 and 88.5033
[3]; M = -6.522
  C13S - Normalized Luminescence Counts (N=2): 64.3281 and 49.293 and 64.0617 and 65.0295 and 54.7831 and 70.7417
[4]; M -5
  Normalized Luminescence Counts for Concentration Response Curves: 106.77 and 91.3809 and 125.546 and 108.456 and 111.021 and 107.357 and 101.946 and 94.0497 and 113.225
[4]; M -6
  Normalized Luminescence Counts for Concentration Response Curves: 87.3796 and 52.2914 and 77.8381 and 75.4765 and 68.8807 and 65.9492 and 71.4902 and 68.1063 and 59.0825
[4]; M -7
  Normalized Luminescence Counts for Concentration Response Curves: 31.0537 and 19.6655 and 31.3615 and 25.6411 and 22.3431 and 26.3739 and 25.2433 and 15.0915 and 12.8355
[4]; M -8
  Normalized Luminescence Counts for Concentration Response Curves: 5.199 (2×) and 2.121 and 24.1753 and 3.655 and 1.823 and 1.556 and -1.828 and -0.7002
[4]; M -9
  Normalized Luminescence Counts for Concentration Response Curves: -0.341 (2×) and -2.496 and 2.189 and -2.575 and -4.773 and 0.4278 and -1.828 and -2.956
[4]; M -10
  Normalized Luminescence Counts for Concentration Response Curves: -0.0332 (2×) and -1.88 and -5.873 and -4.407 and -4.773 and 2.684 and -1.828 and -0.7002
